Experimental data from patent US20240400564A1 (Syndax Pharmaceuticals, Inc, priority 2021, published 2024).

Molecular target: hERG (Homo sapiens, UniProt Q12809)
Test: Patch clamp assay (hERG tail currents, whole-cell)
Procedure: The 35 mm culture dishes upon which cells were seeded at a density allowing single cells to be recorded were placed on the dish holder of the microscope and continuously perfused (at approximately 1 mL/min) with the bath solution described in section 4.6. All solutions applied to cells including the pipette solution were maintained at room temperature (19° C. to 30° C.). After formation of a Gigaohm seal between the patch electrodes and individual hERG stably transfected HEK 293 cells (pipette resistance range: 2.0 MS to 7.0 MS; seal resistance range: >1GΩ) the cell membrane across the pipette tip was ruptured to assure electrical access to the cell interior (whole-cell patch-configuration). In case the quality of the seal was poor, the process of seal formation was repeated with a different cell and a new pipette. As soon as a stable seal could be established, hERG outward tail currents were measured upon depolarization of the cell membrane to +20 mV for 2 s (activation of channels) from a holding potential of −80 mV and upon subsequent repolarization to −40 mV for 3 s. This voltage protocol (as shown below) was run at least 10 times at intervals of 10 s. If current density was judged to be too low for measurement, another cell was recorded.
During wash-in of the test item the voltage protocol indicated above was run continuously again at 10 s intervals until the steady-state level of block was reached.
The IC50 was determined by fitting the dose response curve with a 2-parameter logistic function (amax=100%).

Chain of hERG (Q12809 whole entry): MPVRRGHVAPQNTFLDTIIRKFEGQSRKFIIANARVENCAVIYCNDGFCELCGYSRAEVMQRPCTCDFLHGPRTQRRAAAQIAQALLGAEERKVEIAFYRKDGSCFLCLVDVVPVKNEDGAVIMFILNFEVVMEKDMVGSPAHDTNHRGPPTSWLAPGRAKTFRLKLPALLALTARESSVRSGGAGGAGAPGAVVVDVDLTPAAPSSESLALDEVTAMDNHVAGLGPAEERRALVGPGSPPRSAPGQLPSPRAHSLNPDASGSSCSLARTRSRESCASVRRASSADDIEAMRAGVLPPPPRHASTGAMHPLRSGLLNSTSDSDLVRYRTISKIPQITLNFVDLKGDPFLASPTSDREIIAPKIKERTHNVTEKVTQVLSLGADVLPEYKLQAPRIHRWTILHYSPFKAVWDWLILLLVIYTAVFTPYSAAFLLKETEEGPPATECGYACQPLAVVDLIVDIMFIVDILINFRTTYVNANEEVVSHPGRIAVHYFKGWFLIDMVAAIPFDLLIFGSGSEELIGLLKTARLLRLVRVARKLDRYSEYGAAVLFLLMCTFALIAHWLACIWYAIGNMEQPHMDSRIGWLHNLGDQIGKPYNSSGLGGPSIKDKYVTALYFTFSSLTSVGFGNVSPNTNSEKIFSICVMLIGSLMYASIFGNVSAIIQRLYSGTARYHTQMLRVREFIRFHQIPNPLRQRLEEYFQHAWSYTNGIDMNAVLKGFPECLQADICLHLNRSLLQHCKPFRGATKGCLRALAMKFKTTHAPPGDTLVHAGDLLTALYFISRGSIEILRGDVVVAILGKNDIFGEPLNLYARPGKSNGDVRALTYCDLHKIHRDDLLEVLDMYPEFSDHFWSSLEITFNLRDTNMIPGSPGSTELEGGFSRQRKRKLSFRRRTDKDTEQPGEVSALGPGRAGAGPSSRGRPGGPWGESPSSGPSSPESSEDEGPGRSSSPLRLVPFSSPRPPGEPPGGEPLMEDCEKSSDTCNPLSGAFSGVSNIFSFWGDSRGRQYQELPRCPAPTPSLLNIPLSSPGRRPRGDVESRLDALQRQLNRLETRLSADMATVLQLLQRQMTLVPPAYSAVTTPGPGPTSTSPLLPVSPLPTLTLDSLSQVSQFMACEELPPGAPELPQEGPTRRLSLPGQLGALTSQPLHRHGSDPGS

Compound	hERG % Remaining (30 μM compound)	hERG % Remaining (100 μM compound)	hERG % Remaining (10 μM compound)
CNS(=O)(=O)N[C@@H]1CC[C@@H](CN2CCC3(CC2)CN(c2ncncc2Oc2ccc(F)cc2C(=O)N(C(C)C)C(C)C)C3)OC1 [Example 143, 5-Fluoro-N,N-diisopropyl-2-((4-(7-(((2S,5R)-5-((N-methylsulfamoyl)amino)tetrahydro-2H-pyran-2-yl)methyl)-2,7-diazaspiro[3.5]nonan-2-5-yl)pyrimidin-5-yl)oxy)benzamide]	+++ (≥66%)	+++ (≥66%)	
CCNS(=O)(=O)N[C@@H]1CC[C@@H](CN2CCC3(CC2)CN(c2ncncc2Oc2ccc(F)cc2C(=O)N(C(C)C)C(C)C)C3)OC1 [Example 144, 2-((4-(7-(((2S,5R)-5-((N-Ethylsulfamoyl)amino)tetrahydro-2H-pyran-2-yl)methyl)-2,7-diazaspiro[3.5]nonan-2-yl)pyrimidin-5-yl)oxy)-5-fluoro-N,N-diisopropylbenzamide]	+++ (≥66%)		
CCNS(=O)(=O)N[C@@H]1CC[C@@H](CN2CCC3(CC2)CN(c2ncncc2Oc2ccc(F)cc2C(=O)N(C(C)C)C2CC2)C3)OC1 [Example 145, N-Cyclopropyl-2-((4-(7-(((2S,5R)-5-((N-ethylsulfamoyl)amino)tetrahydro-2H-pyran-2-yl)methyl)-2,7-diazaspiro[3.5]nonan-2-yl)pyrimidin-5-yl)oxy)-5-fluoro-N-isopropylbenzamide]	+++ (≥66%)		
CCNS(=O)(=O)N[C@@H]1CC[C@@H](CN2CCC3(CC2)CN(c2ncncc2Oc2ccc(F)cc2C(=O)N(CC(F)F)C(C)C)C3)OC1 [Example 147, N-(2,2-Difluoroethyl)-2-((4-(7-(((2S,5R)-5-((N-ethylsulfamoyl)amino)tetrahydro-2H-pyran-2-yl)methyl)-2,7-diazaspiro[3.5]nonan-2-yl)pyrimidin-5-yl)oxy)-5-fluoro-N-isopropylbenzamide]	+++ (≥66%)		+++ (≥66%)
CC(C)N(CC(F)F)C(=O)c1cc(F)ccc1Oc1cncnc1N1CC2(CCN(C[C@@H]3CC[C@@H](NS(=O)(=O)NCC4CC4)CO3)CC2)C1 [Example 148, 2-((4-(7-(((2S,5R)-5-((N-(Cyclopropylmethyl)sulfamoyl)amino)tetrahydro-2H-pyran-2-yl)methyl)-2,7-diazaspiro[3.5]nonan-2-yl)pyrimidin-5-yl)oxy)-N-(2,2-difluoroethyl)-5-fluoro-N-isopropylbenzamide]	+++ (≥66%)		
CC(C)N(CC(F)F)C(=O)c1cc(F)ccc1Oc1cncnc1N1CC2(CCN(C[C@@H]3CC[C@@H](NS(=O)(=O)NC4CC4)CO3)CC2)C1 [Example 149, 2-((4-(7-(((2S,5R)-5-((N-Cyclopropylsulfamoyl)amino)tetrahydro-2H-pyran-2-yl)methyl)-2,7-diazaspiro[3.5]nonan-2-yl)pyrimidin-5-yl)oxy)-N-(2,2-difluoroethyl)-5-fluoro-N-isopropylbenzamide]	+++ (≥66%)		
CCNS(=O)(=O)N[C@@H]1CC[C@@H](CN2CCC3(CC2)CN(c2ncncc2Oc2ccc(F)cc2C(=O)N(CC(F)(F)F)C(C)C)C3)OC1 [Example 153, 2-((4-(7-(((2S,5R)-5-((N-Ethylsulfamoyl)amino)tetrahydro-2H-pyran-2-yl)methyl)-2,7-diazaspiro[3.5]nonan-2-yl)pyrimidin-5-yl)oxy)-5-fluoro-N-isopropyl-N-(2,2,2-trifluoroethyl)benzamide]	+++ (≥66%)		
CNS(=O)(=O)N[C@@H]1CC[C@@H](CN2CCC3(CC2)CN(c2ncncc2Oc2ccc(F)cc2C(=O)N(C(C)C)C2CC(F)(F)C2)C3)OC1 [Example 154, N-(3,3-Difluorocyclobutyl)-5-fluoro-N-isopropyl-2-((4-(7-(((2S,5R)-5-((N-methylsulfamoyl)amino)tetrahydro-2H-pyran-2-yl)methyl)-2,7-diazaspiro[3.5]nonan-2-yl)pyrimidin-5-yl)oxy)benzamide]	++ (233% and ≤66%)		+++ (≥66%)
CCNS(=O)(=O)N[C@@H]1CC[C@@H](CN2CCC3(CC2)CN(c2ncncc2Oc2ccc(F)cc2C(=O)N(C(C)C)C2CC(F)(F)C2)C3)OC1 [Example 155, N-(3,3-Difluorocyclobutyl)-2-((4-(7-(((2S,5R)-5-((N-ethylsulfamoyl)amino)tetrahydro-2H-pyran-2-yl)methyl)-2,7-diazaspiro[3.5]nonan-2-yl)pyrimidin-5-yl)oxy)-5-fluoro-N-isopropylbenzamide]	++ (233% and ≤66%)		+++ (≥66%)
C[C@@H]1COC[C@@H](C)N1C(=O)c1cc(F)ccc1Oc1cncnc1N1CC2(CCN(C[C@@H]3CC[C@@H](NS(=O)(=O)NCC4CC4)CO3)CC2)C1 [Example 158, (Cyclopropylmethyl)({[(3R,6S)-6-{[2-(5-{2-[(3R,5R)-3,5-dimethylmorpholine-4-carbonyl]-4-fluorophenoxy}pyrimidin-4-yl)-2,7-diazaspiro[3.5]nonan-7-yl]methyl}oxan-3-yl]sulfamoyl})amine]	+++ (≥66%)		
C[C@@H]1COC[C@H](C)N1C(=O)c1cc(F)ccc1Oc1cncnc1N1CC2(CCN(C[C@@H]3CC[C@@H](NS(=O)(=O)N4CCC4)CO3)CC2)C1 [Example 161, N-((3R,6S)-6-((2-(5-(2-((3R,5S)-3,5-Dimethylmorpholine-4-carbonyl)-4-fluorophenoxy)pyrimidin-4-yl)-2,7-diazaspiro[3.5]nonan-7-yl)methyl)tetrahydro-2H-pyran-3-yl)azetidine-1-sulfonamide]	+++ (≥66%)		
CC(C)N(C(=O)c1cc(F)ccc1Oc1cncnc1N1CC2(CCN(C[C@@H]3CC[C@@H](NS(=O)(=O)C4CC4)CO3)CC2)C1)[C@@H]1CCOC1 [Example 164, 2-((4-(7-(((2S,5R)-5-(Cyclopropanesulfonamido)tetrahydro-2H-pyran-2-yl)methyl)-2,7-diazaspiro[3.5]nonan-2-yl)pyrimidin-5-yl)oxy)-5-fluoro-N-isopropyl-N-((R)-tetrahydrofuran-3-yl)benzamide]	+++ (≥66%)		+++ (≥66%)
CCN(CC)S(=O)(=O)N[C@@H]1CC[C@@H](CN2CCC3(CC2)CN(c2ncncc2Oc2ccc(F)cc2C(=O)N(C(C)C)[C@@H]2CCOC2)C3)OC1 [Example 165, 2-((4-(7-(((2S,5R)-5-((N,N-Diethylsulfamoyl)amino)tetrahydro-2H-pyran-2-yl)methyl)-2,7-diazaspiro[3.5]nonan-2-yl)pyrimidin-5-yl)oxy)-5-fluoro-N-isopropyl-N-((R)-tetrahydrofuran-3-yl)benzamide]	++ (233% and ≤66%)		+++ (≥66%)
CC(C)N(C(=O)c1cc(F)ccc1Oc1cncnc1N1CC2(CCN(C[C@@H]3CC[C@@H](NS(=O)(=O)N(C)C)CO3)CC2)C1)[C@@H]1CCOC1 [Example 167, 2-((4-(7-(((2S,5R)-5-((N,N-Dimethylsulfamoyl)amino)tetrahydro-2H-pyran-2-yl)methyl)-2,7-diazaspiro[3.5]nonan-2-yl)pyrimidin-5-yl)oxy)-5-fluoro-N-isopropyl-N-((R)-tetrahydrofuran-3-yl)benzamide]	+++ (≥66%)	+++ (≥66%)	
CCN(CC)S(=O)(=O)N[C@@H]1CC[C@@H](CN2CCC3(CC2)CN(c2ncncc2Oc2ccc(F)cc2C(=O)N(C(C)C)[C@H]2CCOC2)C3)OC1 [Example 175, 2-((4-(7-(((2S,5R)-5-((N,N-Diethylsulfamoyl)amino)tetrahydro-2H-pyran-2-yl)methyl)-2,7-diazaspiro[3.5]nonan-2-yl)pyrimidin-5-yl)oxy)-5-fluoro-N-isopropyl-N-((S)-tetrahydrofuran-3-yl)benzamide]	+ (<33%)		++ (233% and ≤66%)
CC(C)N(CC#N)C(=O)c1cc(F)ccc1Oc1cncnc1N1CC2(CCN(C[C@@H]3CC[C@@H](NS(=O)(=O)N(C)C)CO3)CC2)C1 [Example 181, N-(Cyanomethyl)-2-((4-(7-(((2S,5R)-5-((N,N-dimethylsulfamoyl)amino)tetrahydro-2H-pyran-2-yl)methyl)-2,7-diazaspiro[3.5]nonan-2-yl)pyrimidin-5-yl)oxy)-5-fluoro-N-isopropylbenzamide]	+++ (≥66%)		
CC(C)N(CC#N)C(=O)c1cc(F)ccc1Oc1cncnc1N1CC2(CCN(C[C@@H]3CC[C@@H](NS(=O)(=O)N4CCC4)CO3)CC2)C1 [Example 182, 2-((4-(7-(((2S,5R)-5-(Azetidine-1-sulfonamido)tetrahydro-2H-pyran-2-yl)methyl)-2,7-diazaspiro[3.5]nonan-2-yl)pyrimidin-5-yl)oxy)-N-(cyanomethyl)-5-fluoro-N-isopropylbenzamide]	+++ (≥66%)		
CC(C)N(CCC#N)C(=O)c1cc(F)ccc1Oc1cncnc1N1CC2(CCN(C[C@@H]3CC[C@@H](NS(=O)(=O)N(C)C)CO3)CC2)C1 [Example 183, N-(2-Cyanoethyl)-2-((4-(7-(((2S,5R)-5-((N,N-dimethylsulfamoyl)amino)tetrahydro-2H-pyran-2-yl)methyl)-2,7-diazaspiro[3.5]nonan-2-yl)pyrimidin-5-yl)oxy)-5-fluoro-N-isopropylbenzamide]	+++ (≥66%)		
CC(C)N(CC(F)F)C(=O)c1cc(F)ccc1Oc1nncnc1N1CC2(CCN(C[C@@H]3CC[C@@H](NS(=O)(=O)N4CCC4)CO3)CC2)C1 [Example 189, 2-((5-(7-(((2S,5R)-5-(Azetidine-1-sulfonamido)tetrahydro-2H-pyran-2-yl)methyl)-2,7-diazaspiro[3.5]nonan-2-yl)-1,2,4-triazin-6-yl)oxy)-N-(2,2-difluoroethyl)-5-fluoro-N-isopropylbenzamide]	+++ (≥66%)		
CC(C)N(C(=O)c1cc(F)ccc1Oc1nncnc1N1CC2(CCN(C[C@@H]3CC[C@@H](NS(=O)(=O)C4CC4)CO3)CC2)C1)C(C)C [Example 196, 2-((5-(7-(((2S,5R)-5-(Cyclopropanesulfonamido)tetrahydro-2H-pyran-2-yl)methyl)-2,7-diazaspiro[3.5]nonan-2-yl)-1,2,4-triazin-6-yl)oxy)-5-fluoro-N,N-diisopropylbenzamide]	+++ (≥66%)		
